Results from publication PMC6271101, “Antioxidant, 5-Lipoxygenase Inhibitory and Cytotoxic Activities of Compounds Isolated from the Ferula lutea Flowers” (Molecules, 2014).
Where “and” joins values, the source holds several entries; their conditions need not be identical. Equal values may be shown once. Read-outs that look alike come from different tables or passages of the source.

Tests used:
[1] = DPPH free radical scavenging test; settings: mean ± SD of three measurements; read-out: IC50 (µmol/L) DPPH Assay
Protocol: The antioxidant activity of compounds was assessed according to their DPPH scavenging ability as described by Khlifi et al., [33] with some modifications. Reaction mixtures, containing 0.1 mL of the relevant compounds solution in methanol, with concentrations ranging 3 mg/mL and 0.1 mL of a 0.2 mM DPPH methanolic solution, were added to 96-well microtiter plates and incubated at 25 °C for 30 min. Absorbances were measured at 520 nm, the wavelength of maximum absorbance of DPPH, were recorded as A(sample). A blank experiment was also carried out applying the same procedure to a solution without the test material and the absorbance was recorded as A(blank).
Ascorbic acid was used as a standard. All measurements were performed in triplicate.

[2] = ABTS radical-scavenging test; settings: mean ± SD of three measurements; read-out: IC50 (µmol/L) ABTS+ Assay
Protocol: The radical scavenging capacity of the samples for the ABTS (2,2′-azinobis-3-ethylbenzothiazoline-6-sulphonate) radical cation was determined as described by Khlifi et al., [33] with some modifications. ABTS was generated by mixing a 7 mM of ABTS at pH 7.4 (5 mM NaH2PO4, 5 mM Na2HPO4 and 154 mM NaCl) with 2.5 mM potassium persulfate (final concentration) followed by storage in the dark at room temperature for 16 h before use. The mixture was diluted with ethanol to give an absorbance of 0.70 ± 0.02 units at 734 nm using spectrophotometer. For each sample, diluted solution (20 μL) was allowed to react with fresh ABTS solution (180 μL), and then the absorbance was measured 6 min after initial mixing. […] The capacity of free radical scavenging IC50 was determined using the same previously used equation for the DPPH method. All measurements were performed in triplicate.

5-lipoxygenase = biological target: T1, 5-lipoxygenase (Glycine max, UniProt P08170); assay: 5-Lipoxygenase inhibitory assay (linoleic acid, 234 nm); format: biochemical, Soybean; settings: for inhibition at 80 µM: read-out: 5-Lipoxygenase Inhibitory (% at 80 µmol/L)
T1 sequence (P08170 1-839): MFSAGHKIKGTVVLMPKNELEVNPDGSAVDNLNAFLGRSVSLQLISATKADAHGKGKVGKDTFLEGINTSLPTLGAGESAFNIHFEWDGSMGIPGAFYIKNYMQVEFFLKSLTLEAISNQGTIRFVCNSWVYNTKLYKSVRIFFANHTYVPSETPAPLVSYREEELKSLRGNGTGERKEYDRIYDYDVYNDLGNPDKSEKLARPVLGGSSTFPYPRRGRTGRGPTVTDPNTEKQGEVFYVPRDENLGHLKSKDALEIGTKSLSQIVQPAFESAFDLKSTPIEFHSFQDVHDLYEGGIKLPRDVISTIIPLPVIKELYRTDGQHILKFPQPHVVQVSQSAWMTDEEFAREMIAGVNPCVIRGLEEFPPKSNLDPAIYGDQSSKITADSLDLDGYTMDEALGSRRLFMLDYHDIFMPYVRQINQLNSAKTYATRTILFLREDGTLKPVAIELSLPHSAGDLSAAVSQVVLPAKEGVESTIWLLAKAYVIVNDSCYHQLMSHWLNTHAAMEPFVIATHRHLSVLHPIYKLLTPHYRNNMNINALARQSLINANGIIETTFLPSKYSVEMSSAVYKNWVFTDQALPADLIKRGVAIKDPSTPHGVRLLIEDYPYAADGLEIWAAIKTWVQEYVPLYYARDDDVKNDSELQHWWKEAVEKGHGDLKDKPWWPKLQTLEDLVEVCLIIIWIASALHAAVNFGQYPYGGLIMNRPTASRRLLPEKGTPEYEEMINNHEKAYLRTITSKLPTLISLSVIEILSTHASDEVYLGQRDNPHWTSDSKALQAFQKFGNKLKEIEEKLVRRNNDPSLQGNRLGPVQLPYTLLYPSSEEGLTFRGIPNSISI
Protocol: The anti-inflammatory activity activities of the isolates was determined on Soybean lipoxygenase as described by Khlifi et al. with some modifications. 20 µL of each compound was mixed individually with 150 µL sodium phosphate buffer (pH 7.4) containing 20 µL of 5-lipoxygenase and 60 µL of linoleic acid (3.5 mM), yielding a final volume of 250 µL. […] The mixture was incubated at 25 °C for 10 min, and the absorbance was determined at 234 nm. The absorption change with the conversion of linoleic acid to 13-hydroperoxyoctadeca-9,11-dienoate (characterized by the appearance of the conjugated diene at 234 nm) was followed for 10 min at 25 °C. […] All measurements were performed in triplicate.

[3] = MTT cytotoxicity assay, HCT-116; format: cell-based; settings: human, HCT-116 colon carcinoma cells; HCT-116, MTT; read-out: Cytotoxic Activity (IC50 µmol/L) HCT-116
Protocol: (§1) The human cancer cell line was used for cytotoxic assay: (HCT-116, IGROV-1 and OVCAR-3). The cells were grown in RPMI-1640 medium supplemented with 10% faetal calf serum (Gibco, Langley, OK, USA), air and 5% CO2. The isolate was added to a medium containing 1 × 10^6 cells/mL, 2 mM L-glutamine and 50 μg/mL gentamycin, and kept at 37 °C in a fully humidified atmosphere. After 18 h of incubation at 37 °C in 5% CO2 incubator, the tubes were centrifuged at 8000 g for 10 min. The supernatant was decanted, and the pellets taken and washed with 20 mM of phosphate buffered saline solution. Each pellet was dissolved in 100 μL (2 mg/mL) MTT solution in a tube, incubated at 22 °C for 4 h and centrifuged at 8000 g for 10 min. All the pellets were dissolved in 500 μL DMSO and read spectrophotometrically at 500 nm. IC50 was calculated by nonlinear regression analysis. Doxorubicin (HCT116) and tamoxifen (IGROV-1 and OVCAR-3) were used as positive control.

[4] = MTT cytotoxicity assay, IGROV-1; format: cell-based; settings: human, IGROV-1 ovary cells; IGROV-1, MTT; read-out: Cytotoxic Activity (IC50 µmol/L) IGROV-1
Protocol: as §1

[5] = MTT cytotoxicity assay, OVCAR-3; format: cell-based; settings: human, OVCAR-3 ovary cells; OVCAR-3, MTT; read-out: Cytotoxic Activity (IC50 µmol/L) OVCAR-3
Protocol: as §1

[6] = previously tested, cited from earlier work
[7] = parameters: method as in doi:10.1016/j.foodchem.2011.09.005; settings: previously tested; read-out: Fe3+ reducing power ability IC50; cited from earlier work
[8] = parameters: method as in doi:10.1016/j.foodchem.2011.09.005; settings: previously tested; read-out: hydrogen peroxide (H2O2) inhibition IC50; cited from earlier work
[9] = tested on: 5-lipoxygenase isolated from rat basophilic leukaemia cells (RBL-1); parameters: method as in doi:10.1016/j.foodchem.2009.09.088; settings: at 20 µmol/L; cited from earlier work
liver cell line Hep-G2 = tested on: liver cell line Hep-G2; parameters: method as in PMID 18481014; settings: read-out: IC50 against Hep-G2; cited from earlier work
[10] = tested on: human chronic myelogenous leukemia cell line K562; parameters: method as in PMID 22913434; settings: read-out: IC50 against K562; cited from earlier work
[11] = tested on: human promyelocytic leukemia cell HL-60; parameters: method as in PMID 15387667; settings: read-out: IC50 against HL-60; cited from earlier work
[12] = tested on: human fibrosarcoma cell line HT-1080; parameters: method as in PMID 15387667; settings: read-out: IC50 against HT-1080; cited from earlier work
[13] = tested on: colon cancer cell line LoVo; parameters: method as in PMID 15387667; settings: read-out: IC50 against LoVo; cited from earlier work
LoVo/Doxo = tested on: LoVo/Doxo; parameters: method as in PMID 15387667; settings: read-out: IC50 against LoVo/Doxo; cited from earlier work
[14] = read-out: DPPH radical scavenging activity IC50

SMILES	IC50 [1] [µmol/L]	IC50 [2] [µmol/L]	5-Lipoxygenase Inhibitory (% at 80 µmol/L) (5-lipoxygenase)	inhibition at 80 µM (5-lipoxygenase) [%]	IC50 at 18 h [3] [µmol/L]	IC50 at 18 h [4] [µmol/L]	IC50 at 18 h [5] [µmol/L]	further results
CC/C(=C(\c1ccccc1)c1ccc(OCCN(C)C)cc1)c1ccccc1 [Tamoxifen, tamoxifen, reference compound]						2 ± 0.1	1.3 ± 0.1	
C/C(O[C@@H]1O[C@H](CO)[C@@H](O)[C@H](O)[C@H]1O)=C1/C=CC(=O)O1 [Compound 1, (E)-5-Ethylidenefuran-2(5H)-one-5-O-β-D-glucopyranoside]				16.9 ± 1.2	> 100	> 100	> 100	
Cc1ccc(C)c(C=O)c1C [Compound 11, 2,3,6-Trimethylbenzaldehyde]			did not exhibit activities	0	> 100	> 100	> 100	
C/C(=C\C(=O)O)CO [Compound 2, 4-Hydroxy-3-methylbut-2-enoic acid]			did not exhibit activities	0	> 100	> 100	> 100	
COc1cccc2c1C(=O)c1c(O)c3c(c(O)c1C2=O)C[C@@](O)(C(=O)CO)C[C@@H]3O[C@H]1C[C@H](N)[C@H](O)[C@H](C)O1 [Doxorubicin, reference compound]					0.18 ± 0.01			
CC(C)(O)[C@@H]1Cc2cc3ccc(=O)oc3cc2O1 [Compound 9, (−)-Marmesin]			did not exhibit activities	0	50 ± 4.9	> 100	> 100	
O=C1O[C@H]([C@@H](O)CO)C(O)=C1O [Vitamin C, ascorbic acid, reference compound]	25 ± 1.1	23.3 ± 0.1						
CC1=CC(=O)C2CC1(O[C@@H]1O[C@H](CO)[C@@H](O)[C@H](O)[C@H]1O)C2(C)C (stereo partly drawn) [Compound 3, Verbenone-5-O-β-D-glucopyranoside]				12.4 ± 0.8	> 100	> 100	> 100	

Now from value to compound, other results behind:

IC50 [1] [µmol/L]	IC50 [2] [µmol/L]	5-Lipoxygenase Inhibitory (% at 80 µmol/L) (5-lipoxygenase)	inhibition at 80 µM (5-lipoxygenase) [%]	SMILES	IC50 at 18 h [3] [µmol/L]	IC50 at 18 h [4] [µmol/L]	IC50 at 18 h [5] [µmol/L]	further results
26.6 ± 1.3	20 ± 0.3			COC(=O)[C@]1(O)C[C@@H](OC(=O)/C=C/c2ccc(O)c(O)c2)[C@@H](O)[C@H](OC(=O)/C=C/c2ccc(O)c(O)c2)C1 [Compound 6, Methyl 3,5-O-Dicaffeoylquinate]	> 100	> 100	> 100	IC50 (5-lipoxygenase): 5.3 µM and 5.28 µM; IC50 ([6]; read-out: DPPH IC50): 10.3 ± 0.24 µM; IC50 [7]: 270 ± 7.37 µM; IC50 [8]: 316.4 ± 2.86 µM; percent inhibition of 5-lipoxygenase (RBL-1) [9]: 15.1%; IC50 (liver cell line Hep-G2): 72.7 ± 6.2 µM
> 300	> 300	did not exhibit activities	0	COc1cc(-c2oc3cc(O)cc(O)c3c(=O)c2O[C@@H]2O[C@H](CO[C@@H]3O[C@@H](C)[C@H](O)[C@@H](O)[C@H]3O)[C@@H](O)[C@H](O)[C@H]2O)ccc1O [Compound 8, Isorhamnetin-3-O-α-L-rhamnopyranosyl(1→6)-β-D-glucopyranoside,narcissin]	> 100	> 100	> 100	DPPH radical scavenging activity [6]: no activity; IC50 [10]: 800 µM
			17.1 ± 1.1	O=C(/C=C/c1ccc(O)c(O)c1)O[C@@H]1C[C@](O)(C(=O)O)C[C@@H](O)[C@H]1O [Compound 4, 5-O-Caffeoylquinic acid]	> 100	> 100	> 100	
18 ± 0.5	19.7 ± 0.7			O=C(/C=C/c1ccc(O)c(O)c1)O[C@@H]1C[C@](O)(C(=O)O)C[C@@H](OC(=O)/C=C/c2ccc(O)c(O)c2)[C@H]1O [Compound 7, 3,5-O-Dicaffeoylquinic acid]	> 100	> 100	> 100	IC50 (5-lipoxygenase): 10 ± 0.2 µM; IC50 [6, 14]: 18.2 ± 0.5 µM; percent inhibition of 5-lipoxygenase (RBL-1) [9]: inactive
		did not exhibit activities	0	CC(C)=CCOc1c2ccoc2cc2oc(=O)ccc12 [Compound 10, Isoimperatorin]	> 100	> 100	> 100	
39.2 ± 0.5	40.8 ± 0.4	did not exhibit activities	0	COC(=O)/C=C/c1ccc(O)c(O)c1 [Compound 5, Methyl caffeate]	22.5 ± 2.4	17.8 ± 1.1	25 ± 1.1	IC50 [6, 14]: 14 ± 2.3 µM; IC50 [11]: 7.5 ± 1.6 µM; IC50 [12]: 11.1 ± 3.5 µM; IC50 [13]: 5.8 ± 1.1 µM; IC50 (LoVo/Doxo): ≥ 40 µM
